This note sets out measurements from patent publication US5637595A, “Cyclic ether acetal PAF antagonists” (British Bio-technology Limited, priority 1991, dated 1997).

As a reminder, the IC50 is the concentration needed to halve the response being measured. The ED50 is the midpoint of the dose-response relation.

In test [1] the target is T1, PAF receptor (human platelet plasma membranes) (Homo sapiens, UniProt P25105).
T1 construct: Platelet concentrates were obtained from a hospital blood bank; from tissue; host or cells: human platelets (platelet concentrates from a hospital blood bank), lysed membranes
In words: Inhibition of [^3 H]-PAF receptor binding to human platelet plasma membranes. The following applies: [^3 H]-PAF 0.5 nM, 0° C., 1 hour incubation, pH 7.0. Here is the method: The inhibition of [^3 H]-PAF binding to human platelet plasma membranes by compounds of general formula I was determined by isotopic labelling and filtration techniques. Platelet concentrates were obtained from a hospital blood bank. These platelet concentrates (500-2500 ml.) were centrifuged at 800 rpm for 10 minutes in a SORVALL RC3B centrifuge to remove the red blood cells present. (The word SORVALL is a trade mark.) The supernalant was subsequently centrifuged at 3,000 rpm in a SORVALL RC3B centrifuge to pellet the platelets present. The platelet rich pellets were resuspended in a minimum volume of buffer (150 mM NaCl, 10 mM Tris, 2 mM EDTA, pH 7.5) and layered onto Ficoll-Paque gradients, 9 ml platelet concentrate to 2 ml Ficoll, and centrifuged at 1,900 rpm for 15 minutes in a SORVALL RT6000 centrifuge. This step removes the residual red blood cells and other nonspecific material such as lymphocytes from the preparation. The platelets which form a band between the plasma and the Ficoll were removed, resuspended in the above buffer and centrifuged at 3,000 rpm for 10 minutes in a SORVALL RT6000 centrifuge. The pelleted platelets were resuspended in buffer (10 mM Tris, 5mM MgCl2, 2 mM EDTA, pH 7.0), snap freezed in liquid N2 and allowed to thaw slowly at room temperature in order to lyse the platelets. The latter step was repeated at least 3 times to ensure proper lysis. […]

For test [2], the system named is PAF-induced hypotension in the rat. The test is described as follows: Inhibition of PAF-induced hypotension in the rat. Type of test: in vivo, rat (male Sprague-Dawley). Particulars: iv, anaesthetised rats, PAF 100 ng/kg/min i.v. infusion, test compound i.v. bolus, straight line interpolation, read-out: ED50, dose to cause a 50% reversal of the hypotensive PAF response. Here is the method: Male Sprague-Dawley rats (300-400 g) were anaesthetised with a mixture of sodium pentobarbitone, 22.5 mg/kg and thiopental 62.5 mg/kg. Through a midline incision in the neck, the trachea was cannulated and the animals breathed spontaneously. A carotid artery was cannulated for the measurement of blood pressure and this signal was used to trigger a rate meter to measure heart rate. Both jugular veins were cannulated: one for the infusion of PAF and the other for the bolus administration of test compounds.
PAF, 100 ng/kg/min was infused i.v. until a sustained fall in mean blood pressure of 50 mmHg was achieved. […] The peak of this reversal was measured and the dose to cause a 50% reversal of the hypotensive PAF response (ED50) calculated by straight line interpolation and the results are presented in Table 2.

T1 sequence (P25105 whole entry): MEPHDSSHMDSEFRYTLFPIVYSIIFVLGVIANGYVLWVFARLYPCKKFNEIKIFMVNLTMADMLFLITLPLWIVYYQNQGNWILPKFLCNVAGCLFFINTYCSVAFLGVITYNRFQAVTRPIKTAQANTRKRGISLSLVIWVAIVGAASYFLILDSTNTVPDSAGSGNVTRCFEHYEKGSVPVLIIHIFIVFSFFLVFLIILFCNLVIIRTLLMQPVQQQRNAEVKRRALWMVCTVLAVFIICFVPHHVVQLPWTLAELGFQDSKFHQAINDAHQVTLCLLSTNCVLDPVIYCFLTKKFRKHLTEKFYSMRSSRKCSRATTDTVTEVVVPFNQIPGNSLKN

Consider `CCCCCCCC1CCCC(OCCCn2c(C)nc3cnccc32)O1` (stereo not drawn) [Example 1, O-(3-(2-Methylimidazo[4,5-c]pyrid-1-yl)propyl)-5-n-heptyl-delta-valerolactol ether], for which, in test [1], the IC50 was found to be 80 nM.
In test [1], `CCCCCCCC1CCC(OCCCn2c(C)nc3cnccc32)O1` (stereo not drawn) [Example 2, O-(3-(2-Methylimidazo[4,5-c]pyrid-1-yl)propyl)-5-n-heptyl-gamma-butyrolactol ether] yielded an IC50 of 120 nM. Moreover, in test [2], the ED50 was 2.1 µg/kg.
